The subject of data set [1] is IL-8 release, d-U937 cells. Put plainly: LPS-induced IL-8 release in d-U937 cells. It counts as cell-based. The following applies: Homo sapiens, dU937; Table 4c1; read-out: LPS Induced Release of Cytokine in d-U937 Cells, IL-8 IC50. The gist of the method:
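IL-8 release after a 4 hr challenge with LPS (0.1 μg/mL, E. coli 0111:B4) following a 2 hr compound pretreatment. Cells were human U937 monocytes differentiated to macrophage-type with PMA 100 ng/mL for 48–72 hr. Relative 50% effective concentration derived from concentration–response data.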

The target in another data set is Syk (Homo sapiens, UniProt P43405). Put plainly: Syk enzyme inhibition (FRET). It counts as biochemical. The conditions noted are these: Table 4a1. The gist of the method:
(§1)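 Kinase activity is measured on a dual-labelled synthetic peptide by FRET. ATP is supplied as an 800 μM solution for c-Src and a 60 μM solution for Syk. Compound is tested at four added concentrations, 4 to 0.004 μg/mL.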

For the next data set, the target named is cSrc (Homo sapiens, UniProt P12931). Put plainly: c-Src enzyme inhibition (FRET). The following applies: Table 4a1. In kind it is biochemical. The gist of the method:
as §1

Data set [2] deals with TNFα release, d-U937 cells. The experiment in a line: LPS-induced TNFα release in d-U937 cells. The conditions noted are these: Homo sapiens, dU937; relative to 10 μg/mL BIRB796; Table 4c1; read-out: LPS Induced Release of Cytokine in d-U937 Cells, TNFα REC50. In kind it is cell-based. The procedure, abridged:
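U937 cells differentiated with PMA (100 ng/mL, 48–72 hr), pre-treated with compound for 2 hr, then stimulated with E. coli LPS (0.1 μg/mL) for 4 hr. Supernatant cytokine measured by sandwich ELISA; inhibition versus vehicle control, REC50 from concentration-response curve.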

The test system of data set [3] is ICAM-1 expression, BEAS2B cells. The experiment in a line: Poly I:C-induced ICAM-1 expression in BEAS2B cells. It counts as cell-based. The following applies: Homo sapiens, BEAS-2B; read-out: Poly IC induced ICAM1 in BEAS2B, IC50. The gist of the method:
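BEAS2B human bronchial epithelial cells pre-incubated 2 h with compound, then transfected with poly I:C (1 μg/mL) plus Oligofectamine. After 18 h, cell-surface ICAM-1 read by cell-based ELISA (A450–655), normalised to Crystal Violet cell number (A595); inhibition calculated against vehicle control at each concentration.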

A further data set addresses GSK3α (Homo sapiens, UniProt P49840). The experiment in a line: GSK 3α enzyme inhibition (FRET), Method 1. In kind it is biochemical. The following applies: Table 4a1. The gist of the method: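 Z-LYTE FRET format. Enzyme (500 ng/mL stock) + compound (stocks 4–0.004 μg/mL), 2 hr RT; add peptide (8 μM stock) + ATP (40 μM stock), 1 hr; protease 1 hr; read donor/acceptor emission ratio.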

Another data set deals with d-U937 cells. Put plainly: Cell viability: MTT assay. In kind it is cell-based, human. The conditions noted are these: 1 μg/mL. The procedure, abridged: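 Differentiated U937 cells exposed to compound at 1 or 10 μg/mL, either 4 h in 5% FCS or 24 h in 10% FCS RPMI1640. MTT then added for 1 h, formazan dissolved in DMSO and read at 550 nm. Viability loss given as % versus 0.5% DMSO vehicle; apparent gains appear negative.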
A general note: Tetrazolium dyes change colour on reduction, which living cells bring about.

GSK3α, sequence (P49840 whole entry): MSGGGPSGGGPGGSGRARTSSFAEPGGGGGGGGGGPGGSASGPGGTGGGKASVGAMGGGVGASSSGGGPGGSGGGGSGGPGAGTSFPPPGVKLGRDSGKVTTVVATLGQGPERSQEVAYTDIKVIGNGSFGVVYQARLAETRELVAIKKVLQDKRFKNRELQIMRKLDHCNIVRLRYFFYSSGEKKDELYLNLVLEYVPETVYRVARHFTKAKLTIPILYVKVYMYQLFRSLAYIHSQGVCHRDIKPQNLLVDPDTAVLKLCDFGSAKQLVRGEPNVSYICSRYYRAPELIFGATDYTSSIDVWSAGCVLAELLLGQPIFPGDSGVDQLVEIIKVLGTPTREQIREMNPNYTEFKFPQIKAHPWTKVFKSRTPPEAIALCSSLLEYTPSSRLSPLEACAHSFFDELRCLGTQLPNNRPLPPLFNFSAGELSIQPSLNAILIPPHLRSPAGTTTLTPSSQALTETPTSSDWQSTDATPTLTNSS
cSrc, sequence (P12931 whole entry): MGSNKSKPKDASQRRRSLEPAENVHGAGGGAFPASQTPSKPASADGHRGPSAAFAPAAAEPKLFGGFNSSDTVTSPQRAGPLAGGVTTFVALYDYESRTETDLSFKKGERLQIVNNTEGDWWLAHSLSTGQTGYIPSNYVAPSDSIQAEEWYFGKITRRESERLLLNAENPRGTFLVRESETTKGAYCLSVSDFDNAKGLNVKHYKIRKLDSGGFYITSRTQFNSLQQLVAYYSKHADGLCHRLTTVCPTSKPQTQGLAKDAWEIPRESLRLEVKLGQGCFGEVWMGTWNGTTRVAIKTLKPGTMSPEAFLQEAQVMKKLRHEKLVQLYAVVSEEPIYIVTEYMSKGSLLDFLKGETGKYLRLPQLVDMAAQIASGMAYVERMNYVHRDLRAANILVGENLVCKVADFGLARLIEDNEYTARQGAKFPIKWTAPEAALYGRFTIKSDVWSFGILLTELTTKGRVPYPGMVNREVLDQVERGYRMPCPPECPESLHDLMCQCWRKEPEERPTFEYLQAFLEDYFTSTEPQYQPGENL

As to `Cc1csc(-n2nc(C(C)(C)C)cc2NC(=O)Nc2ccc(Oc3ccnc(Nc4cccc(C(=O)NCCN5CCOCC5)c4)n3)c3ccccc23)c1` [Example 24, 3-((4-((4-(3-(3-(tert-butyl)-1-(4-methylthiophen-2-yl)-1H-pyrazol-5-yl)ureido)naphthalen-1-yl)oxy)pyrimidin-2-yl)amino)-N-(2-morpholinoethyl)benzamide], the IC50 (usually the concentration needed to halve the response being measured) is 0.3 nM in data set [1]; 14 nM at Syk; 1 nM on cSrc; 1 nM in data set [3]; 207 nM at GSK3α. For the same molecule, the EC50 in data set [2] stood at 1.4 nM. Moreover, the “Cell viability at time point in d-U937 cells, 4 h” value in the data set on d-U937 cells was “−ve (−ve and +ve indicate that the value is below and above respectively, the no significant effect threshold, defined as 30% inhibition at 1 μg/mL at the time point indicated)”. The “Cell viability at time point in d-U937 cells, 24 h” value (from here on “Cell viability at time point … 24 h”) in the data set on d-U937 cells is “−ve (−ve and +ve indicate that the value is below and above respectively, the no significant effect threshold, defined as 30% inhibition at 1 μg/mL at the time point indicated)”.

In the case of `COc1ccc(-n2nc(C(C)C)cc2NC(=O)Nc2ccc(Oc3ccnc(Nc4cc(OC)cc(C(=O)NCCN(C)C)c4)n3)c3ccccc23)cc1` [Example 6], the IC50 in data set [1] was 1.9 nM; at Syk it was 5 nM; against cSrc, 2 nM; in data set [3] it was 1.2 nM; against GSK3α, 634 nM. The EC50 in data set [2] was determined as 0.2 nM. For the same molecule, the “Cell viability at time point in d-U937 cells, 4 h” value with d-U937 cells is “−ve (−ve and +ve indicate that the value is below and above respectively, the no significant effect threshold, defined as 30% inhibition at 1 μg/mL at the time point indicated)”. Also, the “Cell viability at time point … 24 h” value in the data set with d-U937 cells is “−ve (−ve and +ve indicate that the value is below and above respectively, the no significant effect threshold, defined as 30% inhibition at 1 μg/mL at the time point indicated)”.

Regarding `COc1ccc(C(=O)NCCO)cc1Nc1nccc(Oc2ccc(NC(=O)Nc3cc(C(C)C)nn3-c3ccc(C)cc3)c3ccccc23)n1` [Example 32, N-(2-hydroxyethyl)-3-((4-((4-(3-(3-isopropyl-1-(p-tolyl)-1H-pyrazol-5-yl)ureido)naphthalen-1-yl)oxy)pyrimidin-2-yl)amino)-4-methoxybenzamide], the 50% inhibitory concentration (IC50) in data set [1] is 17.1 nM; against Syk, 152 nM; at cSrc, less than 2 nM; in data set [3], 86.7 nM; on GSK3α, greater than 14600 nM. Also, the EC50 in data set [2] is 3.1 nM. Further, in the data set on d-U937 cells, the “Cell viability at time point in d-U937 cells, 4 h” value was “−ve (−ve and +ve indicate that the value is below and above respectively, the no significant effect threshold, defined as 30% inhibition at 1 μg/mL at the time point indicated)”. The “Cell viability at time point … 24 h” value in the data set on d-U937 cells is “−ve (−ve and +ve indicate that the value is below and above respectively, the no significant effect threshold, defined as 30% inhibition at 1 μg/mL at the time point indicated)”.

On to `COc1cc(Nc2nccc(Oc3ccc(NC(=O)Nc4cc(C(C)(C)C)nn4-c4ccc(C)cc4)c4ccccc34)n2)cc(C(=O)NCCN(C)C)c1` [Example 43, 3-((4-((4-(3-(3-(tert-butyl)-1-(p-tolyl)-1H-pyrazol-5-yl)ureido)naphthalen-1-yl)oxy)pyrimidin-2-yl)amino)-N-(2-(dimethylamino)ethyl)-5-methoxybenzamide], for which the IC50 came out at 0.6 nM in data set [1]; 7 nM on Syk; 2 nM against cSrc; 0.4 nM in data set [3]; 197 nM on GSK3α. In data set [2], the EC50 is 0.2 nM. Also, in the data set on d-U937 cells, the “Cell viability at time point in d-U937 cells, 4 h” value was “−ve (−ve and +ve indicate that the value is below and above respectively, the no significant effect threshold, defined as 30% inhibition at 1 μg/mL at the time point indicated)”. Besides, the “Cell viability at time point … 24 h” value in the data set on d-U937 cells is “−ve (−ve and +ve indicate that the value is below and above respectively, the no significant effect threshold, defined as 30% inhibition at 1 μg/mL at the time point indicated)”.

For the molecule `Cc1ccc(-n2nc(C(C)(C)C)cc2NC(=O)Nc2ccc(Oc3ccnc(Nc4cc(Br)cc(C(=O)NCCN5CCOCC5)c4)n3)c3ccccc23)cc1` [Example 62, 3-bromo-5-((4-((4-(3-(3-(tert-butyl)-1-(p-tolyl)-1H-pyrazol-5-yl)ureido)naphthalen-1-yl)oxy)pyrimidin-2-yl)amino)-N-(2-morpholinoethyl)benzamide], the concentration for half-maximal inhibition (IC50) is 1.8 nM in data set [1]; 13 nM on Syk; 7 nM at cSrc; 1 nM in data set [3]; 995 nM against GSK3α. For the same molecule, in data set [2], the EC50 was found to be 1.4 nM. In addition, the “Cell viability at time point in d-U937 cells, 4 h” value in the data set on d-U937 cells was “−ve (−ve and +ve indicate that the value is below and above respectively, the no significant effect threshold, defined as 30% inhibition at 1 μg/mL at the time point indicated)”. In addition, the “Cell viability at time point … 24 h” value in the data set on d-U937 cells was “+ve (−ve and +ve indicate that the value is below and above respectively, the no significant effect threshold, defined as 30% inhibition at 1 μg/mL at the time point indicated)”.

In the case of `COc1cc(Nc2nccc(Oc3ccc(NC(=O)Nc4cc(C(C)C)nn4-c4ccc(OC)nc4)c4ccccc34)n2)cc(C(=O)NCCN2CCOCC2)c1` [Example 10, 3-((4-((4-(3-(3-Isopropyl-1-(6-methoxypyridin-3-yl)-1H-pyrazol-5-yl)ureido)naphthalen-1-yl)oxy)pyrimidin-2-yl)amino)-5-methoxy-N-(2-morpholinoethyl)benzamide], the IC50 in data set [1] was 1.8 nM; against Syk, 4 nM; on cSrc, 2 nM; in data set [3], 7.3 nM; on GSK3α it was greater than 12900 nM. Also, the EC50 in data set [2] came out at 1.3 nM. For the same molecule, the “Cell viability at time point in d-U937 cells, 4 h” value with d-U937 cells was “−ve (−ve and +ve indicate that the value is below and above respectively, the no significant effect threshold, defined as 30% inhibition at 1 μg/mL at the time point indicated)”. Besides, the “Cell viability at time point … 24 h” value in the data set with d-U937 cells was “−ve (−ve and +ve indicate that the value is below and above respectively, the no significant effect threshold, defined as 30% inhibition at 1 μg/mL at the time point indicated)”.

Regarding `COc1ccc(-n2nc(C(C)C)cc2NC(=O)Nc2ccc(Oc3ccnc(Nc4cc(OC)cc(C(=O)NCCN5CCOCC5)c4)c3)c3ccccc23)cc1` [Example 15, 3-((4-((4-(3-(3-isopropyl-1-(4-methoxyphenyl)-1H-pyrazol-5-yl)ureido)naphthalen-1-yl)oxy)pyridin-2-yl)amino)-5-methoxy-N-(2-morpholinoethyl)benzamide], the half-inhibitory concentration (IC50) in data set [1] stood at 1.6 nM; against Syk it was 16 nM; at cSrc, 4 nM; in data set [3], 26.2 nM; on GSK3α, 3180 nM. The EC50 in data set [2] worked out at 0.4 nM. The “Cell viability at time point in d-U937 cells, 4 h” value in the data set on d-U937 cells was “−ve (−ve and +ve indicate that the value is below and above respectively, the no significant effect threshold, defined as 30% inhibition at 1 μg/mL at the time point indicated)”. For the same molecule, in the data set on d-U937 cells, the “Cell viability at time point … 24 h” value was “−ve (−ve and +ve indicate that the value is below and above respectively, the no significant effect threshold, defined as 30% inhibition at 1 μg/mL at the time point indicated)”.

Regarding `Cc1ccc(-n2nc(C(C)C)cc2NC(=O)Nc2ccc(Oc3ccnc(Nc4cc(Cl)cc(C(=O)NCCN5CCOCC5)c4)n3)c3ccccc23)cc1` [Example 60, 3-chloro-5-((4-((4-(3-(3-isopropyl-1-(p-tolyl)-1H-pyrazol-5-yl)ureido)naphthalen-1-yl)oxy)pyrimidin-2-yl)amino)-N-(2-morpholinoethyl)benzamide], the IC50 in data set [1] was 3.9 nM; at Syk it was 60 nM; against cSrc, 13 nM; in data set [3], 132 nM; at GSK3α, greater than 13200 nM. Besides, the EC50 in data set [2] is 1.1 nM. In the data set with d-U937 cells, the “Cell viability at time point in d-U937 cells, 4 h” value was “−ve (−ve and +ve indicate that the value is below and above respectively, the no significant effect threshold, defined as 30% inhibition at 1 μg/mL at the time point indicated)”. The “Cell viability at time point … 24 h” value in the data set on d-U937 cells was “−ve (−ve and +ve indicate that the value is below and above respectively, the no significant effect threshold, defined as 30% inhibition at 1 μg/mL at the time point indicated)”.
